Laboratory results as given in patent US20260317320A1, “C5AR1 ANTAGONISTS AND USES THEREOF” (Vanqua Bio, Inc., priority 2022, published 2026).
Read-outs that look alike come from different tables or passages of the source.

What was measured:
[1] = biological target: T1, complement C5a receptor 1 (C5aR1) (Homo sapiens, UniProt P21730); test: β-arrestin recruitment via C5aR1 activation in live CHO-K1 cells (PathHunter), antagonist mode; format: cell-based; conditions: antagonist mode; recombinant hC5a (EC90) as competing natural agonist; live CHO-K1 cells; read-out: [Antagonist] B-arrestin2 recruitment: Average IC50
T1 construct: β-galactosidase fragment (PathHunter enzyme complementation); host or cells: CHO-K1 (PathHunter CHO-K1 C5aR1 β-arrestin cell line)
T1 sequence (P21730 1-350): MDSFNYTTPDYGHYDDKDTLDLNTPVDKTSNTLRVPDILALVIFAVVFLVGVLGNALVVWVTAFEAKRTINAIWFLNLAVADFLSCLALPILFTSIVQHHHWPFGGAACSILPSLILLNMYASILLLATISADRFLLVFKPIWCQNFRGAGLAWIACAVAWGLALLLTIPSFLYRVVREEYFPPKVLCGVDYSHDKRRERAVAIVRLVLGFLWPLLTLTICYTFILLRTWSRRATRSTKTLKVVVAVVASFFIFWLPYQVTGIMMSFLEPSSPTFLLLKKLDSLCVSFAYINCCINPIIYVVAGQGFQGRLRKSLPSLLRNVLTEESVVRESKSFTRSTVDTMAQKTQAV
In short: (§1)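 Live CHO-K1 cells carry two galactosidase enzyme fragments, one fused to β-arrestin and one to C5aR1, so that β-arrestin recruitment restores enzyme activity. Agonist mode tests compounds alone. Antagonist mode tests them against recombinant hC5a at EC90, and IC50 values are reported in binned ranges.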

[2] = biological target: T1, complement C5a receptor 1 (C5aR1); test: β-arrestin recruitment via C5aR1 activation in live CHO-K1 cells (PathHunter), agonist mode; format: cell-based
In short: as §1

IC50 [1] [nM] | [Agonist] B-arrestin2 recruitment: Average EC50 (nM) ([2]; at 10 μM) | [Agonist] B-arrestin2 recruitment: Average EC50 (nM) [2] | SMILES
< 500 | Non-Active at 10 μM | – | Cc1cccc(F)c1[C@H]1CC[C@H](c2cc3ncc(CC(F)(F)F)nc3n(Cc3ncccc3C(F)(F)F)c2=O)CC1 [compound 229, 7-((1r,4r)-4-(2-Fluoro-6-methylphenyl)cyclohexyl)-3-(2,2,2-trifluoroethyl)-5-((3-(trifluoromethyl)pyridin-2-yl)methyl)pyrido[2,3-b]pyrazin-6(5H)-one]
< 500 | Non-Active at 10 μM | – | COc1nccc(C)c1[C@H]1CC[C@H](c2cc3ncc(C)nc3n(Cc3ncccc3C(F)(F)F)c2=O)CC1 [compound 230, 7-((1r,4r)-4-(2-Methoxy-4-methylpyridin-3-yl)cyclohexyl)-3-methyl-5-((3-(trifluoromethyl)pyridine-2-yl)methyl)pyrido[2,3-b]pyrazin-6(5H)-one]
< 500 | Non-Active at 10 μM | – | Cc1cccc(F)c1[C@H]1CC[C@H](c2cc3ncc(CC(F)F)nc3n(Cc3ncccc3C(F)(F)F)c2=O)CC1 [compound 231, 3-(2,2-Difluoroethyl)-7-((1r,4r)-4-(2-fluoro-6-methylphenyl)cyclohexyl)-5-((3-(trifluoromethyl)pyridin-2-yl)methyl)pyrido[2,3-b]pyrazin-6(5H)-one]
< 500 | Non-Active at 10 μM | – | Cc1cnc2cc([C@H]3CC[C@H](c4c(C)cccc4F)CC3)c(=O)n(Cc3ncccc3CC(F)F)c2n1 [compound 232, 5-((3-(2,2-Difluoroethyl)pyridin-2-yl)methyl)-7-((1r,4r)-4-(2-fluoro-6-methylphenyl)cyclohexyl)-3-methylpyrido[2,3-b]pyrazin-6(5H)-one]
< 500 | Non-Active at 10 μM | – | Cc1ccc2cc([C@H]3CC[C@H](c4c(C)cccc4F)CC3)c(=O)n(Cc3nccnc3OC(F)F)c2n1 [compound 233, 1-((3-(Difluoromethoxy)pyrazin-2-yl)methyl)-3-((1r,4r)-4-(2-fluoro-6-methylphenyl)cyclohexyl)-7-methyl-1,8-naphthyridin-2(1H)-one]
< 500 | Non-Active at 10 μM | – | COc1nccc(C)c1[C@H]1CC[C@H](c2cc3ccc(C)nc3n(Cc3ncccc3C(F)(F)F)c2=O)CC1 [compound 234, 3-((1r,4r)-4-(2-Methoxy-4-methylpyridin-3-yl)cyclohexyl)-7-methyl-1-((3-(trifluoromethyl)pyridin-2-yl)methyl)-1,8-naphthyridin-2(1H)-one]
< 500 | Non-Active at 10 μM | – | Cc1cnc2cc([C@H]3CC[C@H](c4c(F)cccc4F)CC3)c(=O)n(Cc3ncccc3C3CC3)c2n1 [compound 235, 5-((3-Cyclopropylpyridin-2-yl)methyl)-7-((1r,4r)-4-(2,6-difluorophenyl)cyclohexyl)-3-methylpyrido[2,3-b]pyrazin-6(5H)-one]
< 500 | Non-Active at 10 μM | – | Cc1cnc2cc([C@H]3CC[C@H](c4c(F)cccc4F)CC3)c(=O)n(Cc3ncccc3CC(F)(F)F)c2n1 [compound 236, 7-((1r,4r)-4-(2,6-Difluorophenyl)cyclohexyl)-3-methyl-5-((3-(2,2,2-trifluoroethyl)pyridin-2-yl)methyl)pyrido[2,3-b]pyrazin-6(5H)-one]
< 500 | – | Non-Active | Cc1cnc2cc([C@H]3CC[C@H](c4c(C)cncc4F)CC3)c(=O)n(Cc3ncccc3C(F)(F)F)c2n1 [compound 237, 7-((1r,4r)-4-(3-Fluoro-5-methylpyridin-4-yl)cyclohexyl)-3-methyl-5-((3-(trifluoromethyl)pyridin-2-yl)methyl)pyrido[2,3-b]pyrazin-6(5H)-one]
< 500 | – | Non-Active | Cc1cnc2cc([C@H]3CC[C@H](c4c(C)cccc4F)CC3)c(=O)n(Cc3ncccc3OC3CC3)c2n1 [compound 238, 5-((3-Cyclopropoxypyridin-2-yl)methyl)-7-((1r,4r)-4-(2-fluoro-6-methylphenyl)cyclohexyl)-3-methylpyrido[2,3-b]pyrazin-6(5H)-one]
< 500 | – | Non-Active | Cc1ccc2cc([C@H]3CC[C@H](c4c(C)cccc4F)CC3)c(=O)n(Cc3ncccc3CC(F)(F)F)c2n1 [compound 239, 3-((1r,4r)-4-(2-fluoro-6-methylphenyl)cyclohexyl)-7-methyl-1-((3-(2,2,2-trifluoroethyl)pyridin-2-yl)methyl)-1,8-naphthyridin-2(1H)-one]
< 500 | – | Non-Active | Cc1cccc(F)c1[C@H]1CC[C@H](c2cc3ncc(C(F)F)nc3n(Cc3ncccc3C(F)(F)F)c2=O)CC1 [compound 240, 3-(Difluoromethyl)-7-((1r,4r)-4-(2-fluoro-6-methylphenyl)cyclohexyl)-5-((3-(trifluoromethyl)pyridin-2-yl)methyl)pyrido[2,3-b]pyrazin-6(5H)-one]
< 500 | – | Non-Active | Cc1ccc2cc([C@H]3CC[C@H](c4c(C)cccc4F)CC3)c(=O)n(Cc3ncccc3C3CC3)c2n1 [compound 241, 1-((3-Cyclopropylpyridin-2-yl)methyl)-3-((1r,4r)-4-(2-fluoro-6-methylphenyl)cyclohexyl)-7-methyl-1,8-naphthyridin-2(1H)-one]
< 500 | – | Non-Active | Cc1cnc2cc([C@H]3CC[C@H](c4cnsc4C)CC3)c(=O)n(Cc3nccnc3C(F)(F)F)c2n1 [compound 242, 3-Methyl-7-((1r,4r)-4-(5-methylisothiazol-4-yl)cyclohexyl)-5-((3-(trifluoromethyl)pyrazin-2-yl)methyl)pyrido[2,3-b]pyrazin-6(5H)-one]
< 500 | – | Non-Active | Cc1ccc2cc([C@H]3CC[C@H](c4ccccc4C(F)(F)F)CC3)c(=O)n(Cc3ncccc3OC(F)(F)F)c2n1 [compound 244, 7-Methyl-1-((3-(trifluoromethoxy)pyridin-2-yl)methyl)-3-((1r,4r)-4-(2-(trifluoromethyl)phenyl)cyclohexyl)-1,8-naphthyridin-2(1H)-one]
< 500 | Non-Active at 10 μM | – | Cc1ccc2cc([C@H]3CC[C@H](c4c(F)cccc4F)CC3)c(=O)n(Cc3ncccc3C3CC3)c2n1 [compound 245, 1-((3-Cyclopropylpyridin-2-yl)methyl)-3-((1r,4r)-4-(2,6-difluorophenyl)cyclohexyl)-7-methyl-1,8-naphthyridin-2(1H)-one]
< 500 | Non-Active at 10 μM | – | Cc1ccc2cc([C@H]3CC[C@H](c4c(F)cccc4F)CC3)c(=O)n(Cc3ncccc3OC(F)(F)F)c2n1 [compound 246, 3-((1r,4r)-4-(2,6-Difluorophenyl)cyclohexyl)-7-methyl-1-((3-(trifluoromethoxy)pyridin-2-yl)methyl)-1,8-naphthyridin-2(1H)-one]
< 500 | Non-Active at 10 μM | – | Cc1ccc2cc([C@H]3CC[C@H](c4cnccc4C(F)(F)F)CC3)c(=O)n(Cc3ncccc3OC(F)(F)F)c2n1 [compound 247, 7-Methyl-1-((3-(trifluoromethoxy)pyridin-2-yl)methyl)-3-((1r,4r)-4-(4-(trifluoromethyl)pyridin-3-yl)cyclohexyl)-1,8-naphthyridin-2(1H)-one]
< 500 | Non-Active at 10 μM | – | Cc1ccc2cc([C@H]3CC[C@H](c4cnccc4C(F)(F)F)CC3)c(=O)n(Cc3ncccc3C3CC3)c2n1 [compound 248, 1-((3-Cyclopropylpyridin-2-yl)methyl)-7-methyl-3-((1r,4r)-4-(4-(trifluoromethyl)pyridin-3-yl)cyclohexyl)-1,8-naphthyridin-2(1H)-one]
< 500 | Non-Active at 10 μM | – | Cc1cnc2cc([C@H]3CC[C@H](c4cnsc4C)CC3)c(=O)n(Cc3ncccc3C(F)(F)F)c2n1 [compound 249, 3-Methyl-7-((1r,4r)-4-(5-methylisothiazol-4-yl)cyclohexyl)-5-((3-(trifluoromethyl)pyridin-2-yl)methyl)pyrido[2,3-b]pyrazin-6(5H)-one]
< 500 | Non-Active at 10 μM | – | Cc1cnc2cc([C@H]3CC[C@H](c4c(F)cccc4F)CC3)c(=O)n(Cc3ncccc3C(C)(F)F)c2n1 [compound 250, 5-((3-(1,1-Difluoroethyl)pyridin-2-yl)methyl)-7-((1r,4r)-4-(2,6-difluorophenyl)cyclohexyl)-3-methylpyrido[2,3-b]pyrazin-6(5H)-one]
< 500 | Non-Active at 10 μM | – | Cc1ccc2cc([C@H]3CC[C@H](c4cnccc4C(F)(F)F)CC3)c(=O)n(Cc3ncccc3C(F)(F)F)c2n1 [compound 251, 7-Methyl-1-((3-(trifluoromethyl)pyridin-2-yl)methyl)-3-((1r,4r)-4-(4-(trifluoromethyl)pyridin-3-yl)cyclohexyl)-1,8-naphthyridin-2(1H)-one]
